Patent US10077261B2, “Imidazolin-5-one derivative useful as FASN inhibitors for the treatment of cancer” (Janssen Pharmaceutica NV, priority 2012, dated 2018)

Legend:
[1] = biological target: T1, hFASN enzyme (full length) (Homo sapiens, UniProt P49327); experiment: Fatty Acid Synthase (FASN) inhibition scintillation proximity assay; assay type: biochemical; conditions: for inhibition at 10 µM: read-out: Human FASN % inhibition @ 10 μM, 10 μM test compound; for IC50: read-out: Human FASN pIC50 (converted)
T1 construct: 10 μL hFASN enzyme (full length, 300 ng, purified in house); made in house
T1 sequence (P49327 whole entry): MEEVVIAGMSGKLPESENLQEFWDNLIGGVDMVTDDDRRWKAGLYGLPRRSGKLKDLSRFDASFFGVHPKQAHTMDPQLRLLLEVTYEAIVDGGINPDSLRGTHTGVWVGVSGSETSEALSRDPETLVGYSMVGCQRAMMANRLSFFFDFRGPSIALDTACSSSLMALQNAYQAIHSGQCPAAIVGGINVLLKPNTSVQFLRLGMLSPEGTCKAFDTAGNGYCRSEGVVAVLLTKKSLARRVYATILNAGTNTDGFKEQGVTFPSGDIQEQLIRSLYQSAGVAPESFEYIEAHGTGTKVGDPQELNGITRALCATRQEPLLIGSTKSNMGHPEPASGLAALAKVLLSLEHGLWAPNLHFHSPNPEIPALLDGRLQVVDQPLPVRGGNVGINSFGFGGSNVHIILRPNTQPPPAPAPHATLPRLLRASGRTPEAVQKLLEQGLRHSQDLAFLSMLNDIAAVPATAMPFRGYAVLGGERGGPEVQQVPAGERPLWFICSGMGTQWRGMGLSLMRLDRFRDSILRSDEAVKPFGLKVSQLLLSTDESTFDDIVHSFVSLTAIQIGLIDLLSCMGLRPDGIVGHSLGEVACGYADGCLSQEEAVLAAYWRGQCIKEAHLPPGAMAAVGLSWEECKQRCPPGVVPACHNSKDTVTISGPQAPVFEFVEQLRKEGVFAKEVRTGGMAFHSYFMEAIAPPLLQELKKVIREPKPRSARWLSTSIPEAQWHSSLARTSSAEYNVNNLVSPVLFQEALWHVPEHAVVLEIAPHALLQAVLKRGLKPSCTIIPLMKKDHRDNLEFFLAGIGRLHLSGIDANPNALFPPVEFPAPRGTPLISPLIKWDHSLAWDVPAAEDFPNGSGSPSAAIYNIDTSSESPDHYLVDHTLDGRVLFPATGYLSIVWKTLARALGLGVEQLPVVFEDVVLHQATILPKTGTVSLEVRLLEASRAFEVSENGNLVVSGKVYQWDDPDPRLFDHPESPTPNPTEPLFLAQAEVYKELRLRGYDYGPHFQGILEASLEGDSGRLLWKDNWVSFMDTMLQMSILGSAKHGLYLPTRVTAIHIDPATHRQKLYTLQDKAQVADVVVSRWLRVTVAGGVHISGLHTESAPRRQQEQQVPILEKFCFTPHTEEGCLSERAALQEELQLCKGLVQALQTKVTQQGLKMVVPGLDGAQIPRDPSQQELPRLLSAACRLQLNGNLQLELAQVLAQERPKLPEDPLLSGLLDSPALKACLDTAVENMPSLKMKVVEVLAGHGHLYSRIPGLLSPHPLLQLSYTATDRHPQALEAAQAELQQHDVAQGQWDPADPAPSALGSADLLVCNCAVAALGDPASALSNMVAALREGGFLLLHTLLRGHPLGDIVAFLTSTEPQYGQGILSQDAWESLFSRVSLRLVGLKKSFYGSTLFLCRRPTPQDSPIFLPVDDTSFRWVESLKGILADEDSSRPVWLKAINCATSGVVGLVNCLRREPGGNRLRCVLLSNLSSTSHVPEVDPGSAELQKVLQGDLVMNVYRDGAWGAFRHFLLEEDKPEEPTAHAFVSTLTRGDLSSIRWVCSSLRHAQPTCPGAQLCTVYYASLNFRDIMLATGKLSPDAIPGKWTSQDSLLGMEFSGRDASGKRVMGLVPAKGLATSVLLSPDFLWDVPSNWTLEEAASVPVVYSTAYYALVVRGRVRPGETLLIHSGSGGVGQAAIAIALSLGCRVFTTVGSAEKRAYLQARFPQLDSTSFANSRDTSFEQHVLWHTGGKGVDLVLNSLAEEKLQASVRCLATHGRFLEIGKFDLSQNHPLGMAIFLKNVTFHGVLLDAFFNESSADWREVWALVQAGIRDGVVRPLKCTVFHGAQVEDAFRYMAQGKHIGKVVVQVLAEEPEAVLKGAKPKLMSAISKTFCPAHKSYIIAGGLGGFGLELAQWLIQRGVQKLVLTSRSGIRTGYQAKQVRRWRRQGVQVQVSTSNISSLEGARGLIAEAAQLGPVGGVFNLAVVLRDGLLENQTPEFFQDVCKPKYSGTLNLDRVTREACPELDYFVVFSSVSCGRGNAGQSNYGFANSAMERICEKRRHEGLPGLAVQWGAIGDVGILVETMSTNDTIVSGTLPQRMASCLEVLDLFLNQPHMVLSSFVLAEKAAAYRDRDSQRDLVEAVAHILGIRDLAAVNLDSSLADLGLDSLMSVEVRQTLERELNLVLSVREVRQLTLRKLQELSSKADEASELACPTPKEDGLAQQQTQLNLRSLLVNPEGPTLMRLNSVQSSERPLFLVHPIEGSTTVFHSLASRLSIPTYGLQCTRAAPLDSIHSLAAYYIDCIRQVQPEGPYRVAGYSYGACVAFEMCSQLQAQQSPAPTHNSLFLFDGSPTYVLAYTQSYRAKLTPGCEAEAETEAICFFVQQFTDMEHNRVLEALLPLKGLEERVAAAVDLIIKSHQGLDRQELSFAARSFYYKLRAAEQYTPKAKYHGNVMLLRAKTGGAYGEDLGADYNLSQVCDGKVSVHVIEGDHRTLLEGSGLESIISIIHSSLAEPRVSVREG
Outline: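 Read-out relies on hydrophobic ³H-palmitate product, formed from ³H-acetyl-CoA and malonyl-CoA, binding streptavidin imaging beads, measured at 610±20 nm after at least 24 h. Full-length enzyme (300 ng) in phosphate buffer pH 7.5 with DTT; eight compound concentrations, 0.01–30 μM.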

[2] = test system: A2780 ovarian cells; experiment: A2780 ovarian cell proliferation assay in lipid reduced medium, with palmitate (MTT); assay type: cell-based; conditions: Homo sapiens, A2780, 96 h; read-out: pIC50 A2780 Ovarian Cell, With Palmitate (converted)
Outline: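 In this palmitate-supplemented format, compound dilutions (30 μM down to 0.01 μM) are added to cells in lipid-reduced serum with 25 μM palmitate, 0.2% fatty-acid-free BSA and 0.25% ethanol. After four days (96 h) MTT absorbance at 544 nm is recorded and fitted by minimum sum of squares.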

[3] = test system: A2780 ovarian cells; experiment: A2780 ovarian cell proliferation assay in lipid reduced medium, without palmitate (MTT); assay type: cell-based; conditions: Homo sapiens, A2780, 96 h; read-out: pIC50 A2780 Ovarian Cell, Without Palmitate (converted)
[4] = biological target: Fatty Acid Synthase Keto-reductase Domain (FASN KR) (Homo sapiens, UniProt P49327); experiment: Fatty Acid Synthase keto-reductase domain (FASN KR) inhibition, NADPH oxidation at 340 nm
Fatty Acid Synthase Keto-reductase Domain (FASN KR), sequence (P49327 whole entry, the tested form may be a part): as the sequence (P49327 whole entry) above
Description: After 20 minutes incubation at room temperature the plate was measured again (T2).
The decrease in absorbance was calculated as (Absorbance before incubation T1)−(Absorbance following incubation T2).
A plot of Controlmin versus test compound concentration was fitted to a 4-parameter logistic curve using a non-linear least squares regression method.

inhibition at 10 µM [1] [%] | IC50 [1] [nM] | IC50 [2] [nM] | IC50 [3] [nM] | IC50 [4] [nM] | SMILES
93 | 575 | > 10000 | 1120 | 759 | N#Cc1ccc(-c2ccc(C3=NC4(CCCC4)C(=O)N3C[C@@H]3CCN(C(=O)C4CC4)C3)cc2)cc1 [compound 1, 4′-(3-{[(3R)-1-(Cyclopropylcarbonyl)pyrrolidin-3-yl]methyl}-4-oxo-1,3-diazaspiro[4.4]non-1-en-2-yl)biphenyl-4-carbonitrile]
103 | 33.9 | 5130 | 58.9 | 45.7 | O=C(C1CC1)N1CC[C@@H](CN2C(=O)C3(CCCC3)N=C2c2ccc(-c3ccc4[nH]ccc4c3)cc2)C1 [compound 4, 3-{[(3R)-1-(Cyclopropylcarbonyl)pyrrolidin-3-yl]methyl}-2-[4-(1H-indol-5-yl)phenyl]-1,3-diazaspiro[4.4]non-1-en-4-one]
89.7 | 204 | > 10000 | 871 | 501 | O=C(C1CC1)N1CCC(CN2C(=O)C3(CC3)N=C2c2ccc(-c3ccc4[nH]ccc4c3)cc2)CC1 [compound 10, 6-{[1-(Cyclopropylcarbonyl)piperidin-4-yl]methyl}-5-[4-(1H-indol-5-yl)phenyl]-4,6-diazaspiro[2.4]hept-4-en-7-one]
82.2 | 933 | > 10000 | ~3020 | 2040 | O=C(C1CC1)N1CC[C@@H](CN2C(=O)C3(CCCC3)N=C2c2ccc(-c3ccc4ncccc4c3)cc2)C1 [compound 11, 3-{[(3R)-1-(Cyclopropylcarbonyl)pyrrolidin-3-yl]methyl}-2-(4-quinolin-6-ylphenyl)-1,3-diazaspiro[4.4]non-1-en-4-one]
99.4 | 25.7 | 3800 | ~36.3 | 49 | O=C(C1CC1)N1CC[C@@H](CN2C(=O)C3(CCCC3)N=C2c2ccc(-c3ccc4cnccc4c3)cc2)C1 [compound 12, 3-{[(3R)-1-(Cyclopropylcarbonyl)pyrrolidin-3-yl]methyl}-2-(4-isoquinolin-6-ylphenyl)-1,3-diazaspiro[4.4]non-1-en-4-one]
98.2 | 148 | > 10000 | 1230 | 302 | COC(=O)N1CCC2(CC1)N=C(c1ccc(-c3ccc4occc4c3)cc1)N(C[C@@H]1CCN(C(=O)C3CC3)C1)C2=O [compound 14, (R)-Methyl 2-(4-(benzofuran-5-yl)phenyl)-3-((1-(cyclopropanecarbonyl)pyrrolidin-3-yl)methyl)-4-oxo-1,3,8-triazaspiro[4.5]dec-1-ene-8-carboxylate]
113 | 43.7 | > 10000 | ~63.1 | 70.8 | COC(=O)N1CCC2(CC1)N=C(c1ccc(-c3ccc4[nH]ccc4c3)cc1)N(C[C@@H]1CCN(C(=O)C3CC3)C1)C2=O [compound 15, Methyl 3-{[(3R)-1-(cyclopropylcarbonyl)pyrrolidin-3-yl]methyl}-2-[4-(1H-indol-5-yl)phenyl]-4-oxo-1,3,8-triazaspiro[4.5]dec-1-ene-8-carboxylate]
97 | 229 | > 10000 | 398 | 347 | COC(=O)N1CCC2(CC1)N=C(c1ccc(-c3ccc4[nH]ccc4c3)cc1)N(CC1CN(C(=O)C3CC3)C1)C2=O [compound 17, Methyl 3-{[1-(cyclopropylcarbonyl)azetidin-3-yl]methyl}-2-[4-(1H-indol-5-yl)phenyl]-4-oxo-1,3,8-triazaspiro[4.5]dec-1-ene-8-carboxylate]
101 | 158 | 8130 | 646 | 676 | O=C(C1CC1)N1CCC(CN2C(=O)C3(CC3)N=C2c2ccc(-c3ccc4cnccc4c3)cc2)CC1 [compound 20, 6-{[1-(Cyclopropylcarbonyl)piperidin-4-yl]methyl}-5-(4-isoquinolin-6-ylphenyl)-4,6-diazaspiro[2.4]hept-4-en-7-one]
100 | 70.8 | > 10000 | 251 | 120 | Cn1ncc2ccc(-c3ccc(C4=NC5(CC5)C(=O)N4C[C@@H]4CCN(C(=O)C5CC5)C4)cc3)cc21 [compound 27, 6-{[(3R)-1-(Cyclopropylcarbonyl)pyrrolidin-3-yl]methyl}-5-[4-(1-methyl-1H-indazol-6-yl)phenyl]-4,6-diazaspiro[2.4]hept-4-en-7-one]
81.7 | 933 | > 10000 | 3390 | 2340 | O=C(C1CC1)N1CCC(CN2C(=O)C3(CC3)N=C2c2ccc(-c3ccc4[nH]ncc4c3)cc2)CC1 [compound 29, 6-{[1-(Cyclopropylcarbonyl)piperidin-4-yl]methyl}-5-[4-(1H-indazol-5-yl)phenyl]-4,6-diazaspiro[2.4]hept-4-en-7-one]
108 | 57.5 | > 10000 | 380 | 282 | O=C(C1CC1)N1CC[C@@H](CN2C(=O)C3(CC3)N=C2c2ccc(-c3ccc4ccncc4c3)cc2)C1 [compound 30, 6-{[(3R)-1-(Cyclopropylcarbonyl)pyrrolidin-3-yl]methyl}-5-(4-isoquinolin-7-ylphenyl)-4,6-diazaspiro[2.4]hept-4-en-7-one]
107 | 21.9 | > 10000 | 28.8 | 35.5 | O=C(C1CC1)N1CC[C@@H](CN2C(=O)C3(CC3)N=C2c2ccc(-c3ccc4[nH]ccc4c3)cc2)C1 [compound 31, 6-{[(3R)-1-(Cyclopropylcarbonyl)pyrrolidin-3-yl]methyl}-5-[4-(1H-indol-5-yl)phenyl]-4,6-diazaspiro[2.4]hept-4-en-7-one]
-9 | > 10000 | > 10000 | > 10000 |  | Cn1ncc2cc(-c3ccc(C4=NC5(CCOC5)C(=O)N4CC4CN(C(=O)C(F)(F)F)C4)cc3)ccc21 (stereo not drawn) [compound 937, 2-(4-(1-methyl-1H-indazol-5-yl)phenyl)-3-((1-(2,2,2-trifluoroacetyl)azetidin-3-yl)methyl)-7-oxa-1,3-diazaspiro[4.4]non-1-en-4-one]
43 | > 10000 | > 10000 | 7940 |  | O=C(N1CCC(CN2C(=O)C3(CCOC3)N=C2c2ccc(-c3ccc4occc4c3)cc2)C1)C(F)(F)F (stereo not drawn) [compound 938, 2-(4-(benzofuran-5-yl)phenyl)-3-((1-(2,2,2-trifluoroacetyl)pyrrolidin-3-yl)methyl)-7-oxa-1,3-diazaspiro[4.4]non-1-en-4-one]
2 | > 10000 | > 10000 | > 10000 |  | Cn1cc(-c2ccc(-c3ccc(C4=NC5(CCOC5)C(=O)N4CC4CCN(S(C)(=O)=O)C4)cc3)cc2)cn1 (stereo not drawn) [compound 939, 2-(4′-(1-methyl-1H-pyrazol-4-yl)-[1,1′-biphenyl]-4-yl)-3-((1-(methylsulfonyl)pyrrolidin-3-yl)methyl)-7-oxa-1,3-diazaspiro[4.4]non-1-en-4-one]
33 | > 10000 | > 10000 | > 10000 |  | Cn1cc(-c2ccc(-c3ccc(C4=NC5(CCOC5)C(=O)N4CC4CCN(C(=O)C(F)(F)F)C4)cc3)cc2)cn1 (stereo not drawn) [compound 940, 2-(4′-(1-methyl-1H-pyrazol-4-yl)-[1,1′-biphenyl]-4-yl)-3-((1-(2,2,2-trifluoroacetyl)pyrrolidin-3-yl)methyl)-7-oxa-1,3-diazaspiro[4.4]non-1-en-4-one]
9 | > 10000 | > 10000 | > 10000 |  | Cn1cc(-c2ccc(-c3ccc(C4=NC5(CCOC5)C(=O)N4CC4CCN(C(=O)c5nccs5)C4)cc3)cc2)cn1 (stereo not drawn) [compound 943, 2-(4′-(1-methyl-1H-pyrazol-4-yl)-[1,1′-biphenyl]-4-yl)-3-((1-(thiazole-2-carbonyl)pyrrolidin-3-yl)methyl)-7-oxa-1,3-diazaspiro[4.4]non-1-en-4-one]
13 | > 10000 | > 10000 | > 10000 |  | COC(=O)N1CC2(C1)N=C(c1ccc(-c3ccc4occc4c3)cc1)N(C[C@@H]1CCN(C(=O)c3nccs3)C1)C2=O [compound 957, (R)-methyl 6-(4-(benzofuran-5-yl)phenyl)-8-oxo-7-((1-(thiazole-2-carbonyl)pyrrolidin-3-yl)methyl)-2,5,7-triazaspiro[3.4]oct-5-ene-2-carboxylate]
62 | ~10200 | > 10000 | > 10000 |  | COC(=O)N1CC[C@@H](CN2C(=O)C3(CN(C(=O)OC)C3)N=C2c2ccc(-c3ccc4cccnc4c3)cc2)C1 [compound 963, (S)-methyl 7-((1-(methoxycarbonyl)pyrrolidin-3-yl)methyl)-8-oxo-6-(4-(quinolin-7-yl)phenyl)-2,5,7-triazaspiro[3.4]oct-5-ene-2-carboxylate]
